Laboratory results as given in US12227509B2, “Dihydropyrazolopyrazinone derivative having MGAT2 inhibitory activity” (Shionogi & Co., Ltd., priority 2019, dated 2025).
In brackets after ≈: the same amount, converted by molar mass.

Legend:
recombinant human MGAT2 = recombinant human MGAT2 (Homo sapiens (Human), UniProt Q3SYC2); test: Measurement of human MGAT2 inhibitory activity; assay type: biochemical; conditions: concentration exhibiting 50% enzyme inhibition; recombinant human MGAT2, 2-Oleoylglycerol/Oleoyl-CoA
Outline: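 Membrane fraction of baculovirus-infected Sf-9 cells expressing N-terminally Flag-tagged full-length human MGAT2, in 100 mmol/L phosphate pH 7.4 with 2 mmol/L DTT. The substrate solution held 30 μmol/L 2-oleoylglycerol and 10 μmol/L oleoyl-CoA. After 1 h at room temperature, diolein/diolein-d5 ratio was read by ESI Q-TOF MS and % inhibition derived against enzyme and no-enzyme controls.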

Solution stability test = assay type: physicochemical; conditions: 18 hr
Method: The compound of the present invention (0.4 mg) was weighed into a 4 mL screw vial, and 2 mL of various media pH=1 (0.1 N HClaq.+30% MeCN), pH=7 (pH 7 phosphate Buffer (100 mM+30% MeCN) or pH=9 (pH 9 carbonate Buffer (100 mM+30% MeCN) was added, respectively. Complete dissolution was confirmed. If not dissolved, filtration was performed with a 0.45 μm filter. The solution or filtrate was placed in an HPLC vial. HPLC sample cooler was set at 40° C., and sequence was set so that sampling was performed by HPLC at 0, 3, 6, 9, 12, 15, and 18 hours. Stability over time was evaluated by setting the area value of 0 hr product to 100%.

CYP3A4 = CYP3A4 (Homo sapiens (Human), UniProt P08684); test: CYP inhibition test, CYP3A4; assay type: in vitro ADME; conditions: pooled human liver microsomes; terfenadine hydroxylation; given as 'five kinds'
Description: (§1) Using commercially available pooled human hepatic microsome, and employing, as markers, 7-ethoxyresorufin O-deethylation (CYP1A2), tolbutamide methyl-hydroxylation (CYP2C9), mephenytoin 4'-hydroxylation (CYP2C19), dextromethorphan 0-demethylation (CYP2D6), and terfenadine hydroxylation (CYP3A4) as typical substrate metabolism reactions of human main five CYP enzyme forms (CYP1A2, 2C9, 2C19, 2D6, 3A4), an inhibitory degree of each metabolite production amount by the compound of the present invention was assessed. The reaction conditions are as follows: substrate, 0.5 μmol/L ethoxyresorufin (CYP1A2), 100 μmol/L tolbutamide (CYP2C9), 50 μmol/L S-mephenitoin (CYP2C19), 5 μmol/L dextromethorphan (CYP2D6), 1 μmol/L terfenedine (CYP3A4); reaction time, 15 minutes; reaction temperature, 37° C.; enzyme, pooled human liver microsomes 0.2 mg protein/mL; concentrations of the compound of the present invention, 1, 5, 10, 20 μmol/L (four points). As a reaction solution, each five kinds of substrates, human liver microsomes, or compound of the present invention in 50 mmol/L Hepes buffer were added to a 96-well plate at the composition as described above, and NADPH, as a cofactor was added to initiate metabolism reactions. After the incubation at 37° C. for 15 minutes, a methanol/acetonitrile=1/[…]) solution was added to stop the reaction. After the centrifugation at 3000 rpm for 15 minutes, resorufin (CYP1A2 metabolite) in the supernatant was quantified by a fluorescent multilabel counter or LC/MS/MS, and tolbutamide hydroxide (CYP2C9 metabolite), mephenytoin 4' hydroxide (CYP2C19 metabolite), dextrorphan (CYP2D6 metabolite), and terfenadine alcohol (CYP3A4 metabolite) were quantified by LC/MS/MS. Addition of only DMSO being a solvent dissolving a drug to a reaction system was adopted as a control (100%). Remaining activity (%) was calculated. IC50 was calculated by reverse presumption by a logistic model using the concentration and an inhibition rate.

hERG (IKr) = hERG (IKr) (Homo sapiens (Human), UniProt Q12809); test: hERG test; assay type: cell-based; conditions: CHO cells expressing hERG channel, pH 7.4, 10 μmol/L of test compound, read-out: % inhibition of hERG tail peak current (IKr)
Description: For the purpose of assessing risk of an electrocardiogram QT interval prolongation of the compound of the present invention, effects of the compound of the present invention on delayed rectifier K^+ current (IKr), which plays an important role in the ventricular repolarization process, was studied using CHO cells expressing human ether-a-go-go related gene (hERG) channel.
After a cell was retained at a membrane potential of −80 mV by whole cell patch clamp method using an automated patch clamp system (QPatch; Sophion BIoscience A/S), IKr induced by application of a leak potential of −50 mV followed by depolarization pulse stimulation at +20 mV for 2 seconds and, further, repolarization pulse stimulation at −50 mV for 2 seconds, was recorded. […] From the recording IKr, an absolute value of the tail peak current was measured based on the current value at the resting membrane potential using analysis software (Falster Patch; Sophion Bioscience A/S). Further, the % inhibition of tail peak current for the compound of the present invention relative to the tail peak current after application of the vehicle is calculated to assess influence of the compound of the present invention on IKr.

CYP2C19 = CYP2C19 (Homo sapiens (Human), UniProt P33261); test: CYP inhibition test, CYP2C19; assay type: in vitro ADME; conditions: pooled human liver microsomes; mephenytoin 4′-hydroxylation; given as 'five kinds'
Description: as §1

CYP2D6 = CYP2D6 (Homo sapiens (Human), UniProt P10635); test: CYP inhibition test, CYP2D6; assay type: in vitro ADME; conditions: pooled human liver microsomes; dextromethorphan O-demethylation; given as 'five kinds'
Description: as §1

[1] = Metabolism stability test (human liver microsomes); assay type: in vitro ADME; conditions: compound concentration 0.5 μmol/L, 37° C., 30 minutes, NADPH
Method: Using commercially available pooled human hepatic microsomes, the compound of the present invention was reacted for a constant time, a remaining rate was calculated by comparing a reacted sample and an unreacted sample, thereby, a degree of metabolism of the compound of the present invention in liver was assessed.
A reaction was performed (oxidative reaction) at 37° C. for 0 minute or 30 minutes in the presence of 1 mmol/L NADPH in 0.2 mL of a buffer (50 mmol/L Tris-HCl pH 7.4, 150 mmol/L potassium chloride, 10 mmol/L magnesium chloride) containing 0.5 mg protein/mL of human liver microsomes. After the reaction, 50 μL of the reaction solution was added to 100 μL of a methanol/acetonitrile=1/1 (v/v) solution, mixed and centrifuged at 3000 rpm for 15 minutes. The compound of the present invention in the supernatant was quantified by LC/MS/MS, and a remaining amount of the compound of the present invention after the reaction was calculated, letting a compound amount at 0 minute reaction time to be 100%.

CYP2C9 = CYP2C9 (Homo sapiens (Human), UniProt P11712); test: CYP inhibition test, CYP2C9; assay type: in vitro ADME; conditions: pooled human liver microsomes; tolbutamide methyl-hydroxylation; given as 'five kinds'
Description: as §1

CYP1A2 = CYP1A2 (Homo sapiens (Human), UniProt P05177); test: CYP inhibition test, CYP1A2; assay type: in vitro ADME; conditions: pooled human liver microsomes; 7-ethoxyresorufin O-deethylation; given as 'five kinds'
Description: as §1

[2] = BA test (oral absorption); assay type: in vivo; conditions: plasma; mice or SD rats; from AUCs of oral and intravenous administration
Method: Materials and methods for experiments to evaluate oral absorption
(1) Animals: the mice or SD rats were used.
(2) Breeding conditions: the mice or SD rats were allowed to freely take solid food and sterilized tap water.
(3) Setting of dosage and grouping: Oral administration and intravenous administration were performed with a predetermined dosage. Grouping was set as below. (dosage changed per compound)
Oral administration: 1 to 30 mg/kg (n=2 to 3)
Intravenous administration: 0.5 to 10 mg/kg (n=2 to 3)
(4) Preparation of administration solution: Oral administration was performed in the form of a suspension or a solution. Intravenous administration was performed after solubilization.
(5) Routes of administration: Oral administration was performed mandatory into the stomach by oral sonde. Intravenous administration was performed from caudal vein or femoral vein by syringes with needle.
(6) Evaluation items: blood was collected over time, and the plasma concentration of the compound of the present invention was measured by LC/MS/MS.
(7) Statistical analysis: regarding the transition of the plasma concentration of the compound of the present invention, the area under the plasma concentration-time curve (AUC) was calculated by non-linear least squares program WinNonlin (registered trademark), and the bioavailability (BA) of the compound of the present invention was calculated from the AUCs of the oral administration group and intravenous administration group.

[3] = Solubility test (1% DMSO addition, pH 6.8 artificial intestinal juice); assay type: physicochemical; conditions: kinetic from dmso stock, 16 hours at 25° C.
Method: The solubility of the compound of the present invention was determined under 1% DMSO addition conditions. 10 mmol/L solution of the compound was prepared with DMSO, and 6 μL of the solution of the compound of the present invention was added to 594 μL of pH 6.8 artificial intestinal juice (118 mL of 0.2 mol/L NaOH test solution and water were added to 250 mL of 0.2 mol/L potassium dihydrogen phosphate test solution to reach 1000 mL). The mixture was left standing for 16 hours at 25° C., and the mixture was vacuum-filtered. The filtrate was two-fold diluted with methanol/water=1/1 (V/V), and the compound concentration in the filtrate was measured with HPLC or LC/MS/MS by the absolute calibration method. The dilution concentration and the dilution solvent were changed as necessary.

Sequence of hERG (IKr) (Q12809 whole entry): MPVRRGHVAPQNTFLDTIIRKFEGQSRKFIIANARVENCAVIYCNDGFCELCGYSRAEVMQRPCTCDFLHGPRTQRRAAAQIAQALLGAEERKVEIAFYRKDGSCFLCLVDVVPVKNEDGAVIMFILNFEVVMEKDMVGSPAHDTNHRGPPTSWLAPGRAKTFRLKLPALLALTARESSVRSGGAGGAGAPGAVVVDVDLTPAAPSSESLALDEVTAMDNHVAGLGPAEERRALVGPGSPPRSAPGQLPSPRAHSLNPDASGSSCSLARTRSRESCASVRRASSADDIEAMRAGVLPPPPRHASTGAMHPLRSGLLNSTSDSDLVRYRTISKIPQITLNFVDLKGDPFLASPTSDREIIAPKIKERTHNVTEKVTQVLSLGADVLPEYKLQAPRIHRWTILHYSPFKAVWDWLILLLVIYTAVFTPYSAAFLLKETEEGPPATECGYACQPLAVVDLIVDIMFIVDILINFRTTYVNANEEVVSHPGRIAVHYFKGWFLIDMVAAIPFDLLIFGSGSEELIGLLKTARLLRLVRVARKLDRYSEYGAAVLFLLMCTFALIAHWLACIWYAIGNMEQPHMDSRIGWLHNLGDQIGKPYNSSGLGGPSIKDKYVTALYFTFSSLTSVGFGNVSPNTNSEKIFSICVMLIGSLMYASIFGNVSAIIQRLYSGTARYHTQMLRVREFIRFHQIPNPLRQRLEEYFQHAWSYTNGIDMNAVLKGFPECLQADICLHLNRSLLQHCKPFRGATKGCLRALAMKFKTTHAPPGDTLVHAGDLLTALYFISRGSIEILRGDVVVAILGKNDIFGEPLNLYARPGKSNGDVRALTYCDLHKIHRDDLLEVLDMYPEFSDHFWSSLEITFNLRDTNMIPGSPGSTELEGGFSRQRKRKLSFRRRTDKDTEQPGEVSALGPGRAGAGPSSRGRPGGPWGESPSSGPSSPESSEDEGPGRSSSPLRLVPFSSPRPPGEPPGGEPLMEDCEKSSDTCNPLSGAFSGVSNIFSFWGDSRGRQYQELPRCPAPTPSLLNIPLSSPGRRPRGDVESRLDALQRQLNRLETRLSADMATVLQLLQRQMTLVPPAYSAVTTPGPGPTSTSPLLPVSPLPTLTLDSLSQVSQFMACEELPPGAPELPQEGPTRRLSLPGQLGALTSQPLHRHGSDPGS
Sequence of CYP2D6 (P10635 whole entry): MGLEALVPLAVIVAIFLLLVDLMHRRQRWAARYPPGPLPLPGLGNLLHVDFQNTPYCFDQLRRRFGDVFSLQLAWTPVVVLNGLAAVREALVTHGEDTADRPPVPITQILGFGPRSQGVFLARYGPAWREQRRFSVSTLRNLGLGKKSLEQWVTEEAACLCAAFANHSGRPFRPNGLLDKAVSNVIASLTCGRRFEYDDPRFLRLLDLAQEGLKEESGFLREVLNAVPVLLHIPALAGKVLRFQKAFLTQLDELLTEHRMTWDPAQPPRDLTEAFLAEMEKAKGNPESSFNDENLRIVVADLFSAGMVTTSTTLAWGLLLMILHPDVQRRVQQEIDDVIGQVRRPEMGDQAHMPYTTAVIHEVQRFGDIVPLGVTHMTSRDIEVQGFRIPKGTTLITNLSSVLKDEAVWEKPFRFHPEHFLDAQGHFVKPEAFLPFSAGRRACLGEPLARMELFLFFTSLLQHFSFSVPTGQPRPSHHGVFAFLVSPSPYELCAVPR
Sequence of CYP2C9 (P11712 whole entry): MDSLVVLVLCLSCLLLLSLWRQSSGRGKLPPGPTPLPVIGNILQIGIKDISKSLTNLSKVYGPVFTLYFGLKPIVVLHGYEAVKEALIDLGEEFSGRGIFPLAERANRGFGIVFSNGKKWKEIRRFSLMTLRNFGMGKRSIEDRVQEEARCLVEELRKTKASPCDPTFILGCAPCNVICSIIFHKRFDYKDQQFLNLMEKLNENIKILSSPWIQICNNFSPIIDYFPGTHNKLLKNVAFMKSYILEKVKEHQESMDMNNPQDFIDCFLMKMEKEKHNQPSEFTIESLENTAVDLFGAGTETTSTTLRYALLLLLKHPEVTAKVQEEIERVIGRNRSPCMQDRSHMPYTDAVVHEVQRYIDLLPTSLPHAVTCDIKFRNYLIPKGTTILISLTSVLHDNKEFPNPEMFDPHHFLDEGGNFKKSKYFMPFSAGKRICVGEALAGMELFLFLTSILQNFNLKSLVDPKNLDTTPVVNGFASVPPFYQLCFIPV
Sequence of CYP3A4 (P08684 whole entry): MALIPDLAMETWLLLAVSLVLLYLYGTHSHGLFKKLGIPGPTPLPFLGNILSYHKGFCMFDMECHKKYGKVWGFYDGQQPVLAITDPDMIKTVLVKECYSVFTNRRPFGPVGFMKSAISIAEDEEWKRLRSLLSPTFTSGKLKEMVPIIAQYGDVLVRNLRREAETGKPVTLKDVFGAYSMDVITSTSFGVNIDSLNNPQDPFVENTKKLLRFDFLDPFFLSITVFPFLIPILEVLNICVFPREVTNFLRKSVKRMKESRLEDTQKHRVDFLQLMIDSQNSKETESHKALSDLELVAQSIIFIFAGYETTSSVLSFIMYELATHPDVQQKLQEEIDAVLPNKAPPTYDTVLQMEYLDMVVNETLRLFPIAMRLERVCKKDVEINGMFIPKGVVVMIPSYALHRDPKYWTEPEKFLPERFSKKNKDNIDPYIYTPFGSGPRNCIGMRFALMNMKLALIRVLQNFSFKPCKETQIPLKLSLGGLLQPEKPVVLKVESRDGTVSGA
Sequence of CYP2C19 (P33261 whole entry): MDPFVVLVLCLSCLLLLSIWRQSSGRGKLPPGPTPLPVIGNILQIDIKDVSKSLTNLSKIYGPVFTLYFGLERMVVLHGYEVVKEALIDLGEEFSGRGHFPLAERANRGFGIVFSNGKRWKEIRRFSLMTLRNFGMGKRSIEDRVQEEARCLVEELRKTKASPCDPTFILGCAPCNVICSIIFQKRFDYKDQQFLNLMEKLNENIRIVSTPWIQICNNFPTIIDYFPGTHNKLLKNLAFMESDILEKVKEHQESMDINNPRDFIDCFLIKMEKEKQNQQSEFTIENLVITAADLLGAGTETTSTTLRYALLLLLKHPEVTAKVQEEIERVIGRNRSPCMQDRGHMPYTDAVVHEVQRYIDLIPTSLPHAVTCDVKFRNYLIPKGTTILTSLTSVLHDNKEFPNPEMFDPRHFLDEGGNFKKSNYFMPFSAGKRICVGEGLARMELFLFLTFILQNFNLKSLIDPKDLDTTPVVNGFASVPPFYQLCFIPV
Sequence of CYP1A2 (P05177 whole entry): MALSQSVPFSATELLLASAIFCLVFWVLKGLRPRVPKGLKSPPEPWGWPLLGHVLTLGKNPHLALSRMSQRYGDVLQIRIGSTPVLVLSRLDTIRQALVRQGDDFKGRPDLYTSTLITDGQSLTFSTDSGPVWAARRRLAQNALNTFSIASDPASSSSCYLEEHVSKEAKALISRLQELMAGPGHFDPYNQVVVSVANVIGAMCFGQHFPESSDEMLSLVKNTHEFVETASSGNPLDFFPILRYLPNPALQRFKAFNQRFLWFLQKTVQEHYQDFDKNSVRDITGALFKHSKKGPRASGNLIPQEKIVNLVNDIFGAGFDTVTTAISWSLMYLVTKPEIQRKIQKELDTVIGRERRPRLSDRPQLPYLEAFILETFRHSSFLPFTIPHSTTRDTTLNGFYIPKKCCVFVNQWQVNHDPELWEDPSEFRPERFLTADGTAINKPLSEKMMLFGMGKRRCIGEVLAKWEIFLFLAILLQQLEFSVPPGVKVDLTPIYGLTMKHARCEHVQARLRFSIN
Sequence of recombinant human MGAT2 (Q3SYC2 whole entry): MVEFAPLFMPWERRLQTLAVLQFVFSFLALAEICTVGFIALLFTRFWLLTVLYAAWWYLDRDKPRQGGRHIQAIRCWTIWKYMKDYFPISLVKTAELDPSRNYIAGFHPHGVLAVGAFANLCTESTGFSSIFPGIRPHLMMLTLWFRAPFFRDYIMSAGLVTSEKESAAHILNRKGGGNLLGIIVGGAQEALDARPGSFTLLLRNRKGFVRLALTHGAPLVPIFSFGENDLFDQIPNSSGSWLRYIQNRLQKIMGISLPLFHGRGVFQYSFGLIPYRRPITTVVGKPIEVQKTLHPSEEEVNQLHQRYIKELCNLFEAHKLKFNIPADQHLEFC

IC50 (recombinant human MGAT2) [µM] | Residual rate (Solution stability test; pH=1, 40° C.) [%] | Residual rate (Solution stability test; pH=7, 40° C.) [%] | Residual rate (Solution stability test; pH=9, 40° C.) [%] | IC50 (CYP3A4) [µM] | IC50 (CYP2C19) [µM] | IC50 (CYP2D6) [µM] | Remaining rate [1] [%] | IC50 (CYP2C9) [µM] | IC50 (CYP1A2) [µM] | bioavailability [2] [%] | solubility at 16 h [3] [µM] | SMILES | inhibition at 10 min, 10 μmol/L (hERG (IKr)) [%]
0.00199 | 100.2 | 100.9 | 100.2 | – | – | – | – | – | – | – | – | CS(=O)(=O)CC(=O)Nc1c(-c2ccc(C#N)cn2)nn2c1C(=O)N[C@@]1(CCc3cc(OCC(F)(F)F)ccc31)C2 [Compound I-3] | –
– | – | – | – | > 20 | > 20 | > 20 | 98.5 | > 20 | > 20 | 60.5 | – | CS(=O)(=O)CC(=O)Nc1c(-c2ccc(F)c(F)c2)nn2c1C(=O)N[C@@]1(CCc3cc(OCC(F)(F)F)ccc31)C2 [Compound I-33] | 21.3
– | – | – | – | – | – | – | 101 | – | – | 49 | > 50 | CS(=O)(=O)CC(=O)Nc1c(-c2ccc(Cl)cn2)nn2c1C(=O)N[C@@]1(CCOc3cc(F)cc(F)c31)C2 [Compound I-137] | 23.6
– | – | – | – | > 20 | > 20 | > 20 | 99.4 | > 20 | > 20 | 67 | 48.9 (≈ 25.8 µg/mL) | CS(=O)(=O)CC(=O)Nc1c(-c2ccc(C3CC3)cn2)nn2c1C(=O)N[C@@]1(CCc3cc(F)cc(F)c31)C2 [Compound I-141] | 14
– | – | – | – | > 20 | > 20 | > 20 | 106 | > 20 | > 20 | 66.2 | > 50 | CS(=O)(=O)CC(=O)Nc1c(-c2ccc(Cl)cn2)nn2c1C(=O)N[C@@]1(CCc3cc(F)cc(F)c31)C2 [Compound I-142] | 10.6
